From ChEMBL document CHEMBL1150317, “Discovery of aryl aminoquinazoline pyridones as potent, selective, and orally efficacious inhibitors of receptor tyrosine kinase c-Kit” (J Med Chem, 2008)

Key:
[1] = Inhibition of CAMK2 at 1 uM relative to control
[2] = Volume of distribution at steady state in Sprague-Dawley rat at 1 mg/kg, iv; type: ADME, organism-based; parameters: dose 1 mg/kg, route intravenous; conditions: in vivo, read-out: Vdss
[3] = biological target: MAP kinase-activated protein kinase 2 (Homo sapiens) (UniProt P49137); experiment: Inhibition of MAPKAPK2 at 1 uM relative to control
[4] = biological target: Cyclin-dependent kinase 1 (Homo sapiens) (UniProt P06493); experiment: Inhibition of CDK1 at 1 uM relative to control
Chain of Cyclin-dependent kinase 1 (Homo sapiens) (P06493 whole entry, looked up): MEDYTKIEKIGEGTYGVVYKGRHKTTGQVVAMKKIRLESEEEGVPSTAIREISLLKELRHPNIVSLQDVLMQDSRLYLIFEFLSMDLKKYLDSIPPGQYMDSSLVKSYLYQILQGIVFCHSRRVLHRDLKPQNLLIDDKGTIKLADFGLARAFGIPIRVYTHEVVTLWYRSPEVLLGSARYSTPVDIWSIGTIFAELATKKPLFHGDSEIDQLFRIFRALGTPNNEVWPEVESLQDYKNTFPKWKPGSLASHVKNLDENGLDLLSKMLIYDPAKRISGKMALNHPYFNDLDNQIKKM

[5] = biological target: Tyrosine-protein kinase ABL1 (Homo sapiens, UniProt P00519); experiment: Inhibition of Abl by TR-FRET assay
Chain of Tyrosine-protein kinase ABL1 (P00519 whole entry): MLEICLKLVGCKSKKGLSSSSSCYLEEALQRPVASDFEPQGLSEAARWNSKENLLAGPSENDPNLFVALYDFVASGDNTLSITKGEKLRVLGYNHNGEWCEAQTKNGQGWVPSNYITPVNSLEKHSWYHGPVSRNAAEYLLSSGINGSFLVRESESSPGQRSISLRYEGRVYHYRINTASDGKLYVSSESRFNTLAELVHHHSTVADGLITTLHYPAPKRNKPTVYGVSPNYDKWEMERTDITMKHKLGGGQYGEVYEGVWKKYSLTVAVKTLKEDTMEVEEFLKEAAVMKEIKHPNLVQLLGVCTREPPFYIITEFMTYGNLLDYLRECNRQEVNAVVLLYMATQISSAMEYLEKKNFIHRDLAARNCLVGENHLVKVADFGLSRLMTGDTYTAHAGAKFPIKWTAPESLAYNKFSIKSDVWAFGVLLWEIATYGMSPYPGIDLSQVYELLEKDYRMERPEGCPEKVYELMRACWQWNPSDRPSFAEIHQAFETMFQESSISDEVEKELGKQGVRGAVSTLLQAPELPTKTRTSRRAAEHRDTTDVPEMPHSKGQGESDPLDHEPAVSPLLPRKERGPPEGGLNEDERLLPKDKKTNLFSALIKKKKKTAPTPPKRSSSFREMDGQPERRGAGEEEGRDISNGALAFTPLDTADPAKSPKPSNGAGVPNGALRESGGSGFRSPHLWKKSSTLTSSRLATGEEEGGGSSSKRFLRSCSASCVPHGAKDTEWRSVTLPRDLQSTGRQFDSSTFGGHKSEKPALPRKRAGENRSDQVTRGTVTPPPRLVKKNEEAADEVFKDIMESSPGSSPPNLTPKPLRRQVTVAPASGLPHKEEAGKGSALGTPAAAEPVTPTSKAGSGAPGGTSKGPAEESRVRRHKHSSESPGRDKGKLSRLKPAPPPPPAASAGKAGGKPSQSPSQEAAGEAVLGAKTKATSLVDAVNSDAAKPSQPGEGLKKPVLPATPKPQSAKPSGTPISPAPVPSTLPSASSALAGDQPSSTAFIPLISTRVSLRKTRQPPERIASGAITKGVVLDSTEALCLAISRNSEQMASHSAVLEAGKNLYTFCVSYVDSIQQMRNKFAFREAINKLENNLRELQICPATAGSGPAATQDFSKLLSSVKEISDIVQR

[6] = biological target: Serine/threonine-protein kinase N2 (Homo sapiens) (UniProt Q16513); experiment: Inhibition of PRK2 at 1 uM relative to control
[7] = biological target: Serine/threonine-protein kinase Chk2 (Homo sapiens) (UniProt O96017); experiment: Inhibition of CHK2 at 1 uM relative to control
[8] = biological target: Mitogen-activated protein kinase 9 (Homo sapiens) (UniProt P45984); experiment: Inhibition of JNK2 at 1 uM relative to control
[9] = biological target: Ribosomal protein S6 kinase alpha-5 (Homo sapiens) (UniProt O75582); experiment: Inhibition of MSK1 at 1 uM relative to control
Chain of Ribosomal protein S6 kinase alpha-5 (Homo sapiens) (O75582 whole entry, looked up): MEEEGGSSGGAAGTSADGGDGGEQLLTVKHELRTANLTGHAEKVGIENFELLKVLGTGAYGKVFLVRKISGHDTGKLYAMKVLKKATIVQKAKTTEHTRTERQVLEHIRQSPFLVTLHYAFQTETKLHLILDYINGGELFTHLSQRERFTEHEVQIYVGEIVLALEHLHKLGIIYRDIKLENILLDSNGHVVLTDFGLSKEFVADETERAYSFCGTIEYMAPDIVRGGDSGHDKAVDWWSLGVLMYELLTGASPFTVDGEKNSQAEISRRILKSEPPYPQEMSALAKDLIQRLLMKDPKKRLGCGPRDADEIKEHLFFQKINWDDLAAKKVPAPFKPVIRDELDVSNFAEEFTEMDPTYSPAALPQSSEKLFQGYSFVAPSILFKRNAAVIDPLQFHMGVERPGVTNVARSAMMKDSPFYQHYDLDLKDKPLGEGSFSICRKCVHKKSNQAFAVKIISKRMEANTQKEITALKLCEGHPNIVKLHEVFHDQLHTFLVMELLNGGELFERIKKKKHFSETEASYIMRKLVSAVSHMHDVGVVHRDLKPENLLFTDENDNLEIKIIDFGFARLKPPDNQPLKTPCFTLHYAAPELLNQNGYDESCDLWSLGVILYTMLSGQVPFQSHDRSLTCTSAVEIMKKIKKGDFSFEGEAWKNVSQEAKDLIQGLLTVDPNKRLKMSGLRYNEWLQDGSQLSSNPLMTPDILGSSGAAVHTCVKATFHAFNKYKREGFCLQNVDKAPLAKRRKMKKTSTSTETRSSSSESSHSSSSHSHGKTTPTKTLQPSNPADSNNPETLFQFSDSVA

[10] = biological target: Mitogen-activated protein kinase 10 (Homo sapiens) (UniProt P53779); experiment: Inhibition of JNK3 at 1 uM relative to control
[11] = biological target: RAC-alpha serine/threonine-protein kinase (Homo sapiens) (UniProt P31749); experiment: Inhibition of PKBalpha at 1 uM relative to control
[12] = biological target: Ribosomal protein S6 kinase beta-1 (Homo sapiens) (UniProt P23443); experiment: Inhibition of P70S6 at 1 uM relative to control
[13] = Inhibition of casein kinase 1 at 1 uM relative to control
[14] = biological target: Protein kinase C gamma type (Homo sapiens) (UniProt P05129); experiment: Inhibition of PKCgamma at 1 uM relative to control
[15] = Inhibition of p38 by TR-FRET assay
[16] = biological target: Mitogen-activated protein kinase 8 (Homo sapiens) (UniProt P45983); experiment: Inhibition of JNK1 at 1 uM relative to control
[17] = biological target: 5'-AMP-activated protein kinase subunit beta-1 (Homo sapiens) (UniProt Q9Y478); experiment: Inhibition of AMPK at 1 uM relative to control
[18] = biological target: Rho-associated protein kinase 2 (Homo sapiens) (UniProt O75116); experiment: Inhibition of ROCK2 at 1 uM relative to control
[19] = biological target: Cyclin-dependent kinase 2 (Homo sapiens) (UniProt P24941); experiment: Inhibition of CDK2 at 1 uM relative to control
[20] = AUC (0 to t) in Sprague-Dawley rat at 10 mg/kg, po; type: ADME, organism-based; parameters: dose 10 mg/kg, route oral; conditions: plasma
[21] = biological target: Protein kinase C beta type (Homo sapiens) (UniProt P05771); experiment: Inhibition of PKCbeta at 1 uM relative to control
Chain of Protein kinase C beta type (Homo sapiens) (P05771 2-671 limits assumed): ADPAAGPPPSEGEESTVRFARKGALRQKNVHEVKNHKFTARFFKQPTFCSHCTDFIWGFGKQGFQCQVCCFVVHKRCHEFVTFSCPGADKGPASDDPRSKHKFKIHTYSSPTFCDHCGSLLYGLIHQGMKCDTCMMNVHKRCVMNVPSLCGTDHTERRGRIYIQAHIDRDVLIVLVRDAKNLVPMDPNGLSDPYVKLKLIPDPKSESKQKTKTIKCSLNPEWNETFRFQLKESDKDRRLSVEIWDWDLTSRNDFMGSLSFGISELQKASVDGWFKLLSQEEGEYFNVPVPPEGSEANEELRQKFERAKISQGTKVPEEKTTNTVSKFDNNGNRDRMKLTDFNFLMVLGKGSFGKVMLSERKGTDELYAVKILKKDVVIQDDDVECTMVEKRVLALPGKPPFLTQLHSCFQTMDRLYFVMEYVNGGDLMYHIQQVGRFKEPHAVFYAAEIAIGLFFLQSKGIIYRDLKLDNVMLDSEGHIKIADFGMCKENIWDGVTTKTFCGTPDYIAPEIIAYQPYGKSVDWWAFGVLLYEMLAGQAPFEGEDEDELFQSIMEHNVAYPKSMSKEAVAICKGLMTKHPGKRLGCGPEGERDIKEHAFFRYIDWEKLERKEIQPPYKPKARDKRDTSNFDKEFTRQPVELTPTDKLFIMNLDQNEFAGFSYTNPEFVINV

[22] = Half life in Sprague-Dawley rat at 10 mg/kg, po; type: ADME, organism-based; parameters: dose 10 mg/kg, route oral; conditions: in vivo
[23] = biological target: MAP kinase-activated protein kinase 5 (Homo sapiens) (UniProt Q8IW41); experiment: Inhibition of PRAK at 1 uM relative to control
[24] = biological target: Serine/threonine-protein kinase Sgk1 (Homo sapiens) (UniProt O00141); experiment: Inhibition of SGK1 at 1 uM relative to control
[25] = biological target: Mitogen-activated protein kinase 13 (Homo sapiens) (UniProt O15264); experiment: Inhibition of p38delta at 1 uM relative to control
Mus musculus = experiment: Effect on SCF-induced mast cell activation in po dosed C57BL/6 mouse assessed as decrease in histamine release in blood; type: functional, organism-based; conditions: C57BL/6, Blood
[26] = biological target: Glycogen synthase kinase-3 beta (Homo sapiens) (UniProt P49841); experiment: Inhibition of GSK3-beta at 1 uM relative to control
Chain of Glycogen synthase kinase-3 beta (Homo sapiens) (P49841 whole entry, looked up): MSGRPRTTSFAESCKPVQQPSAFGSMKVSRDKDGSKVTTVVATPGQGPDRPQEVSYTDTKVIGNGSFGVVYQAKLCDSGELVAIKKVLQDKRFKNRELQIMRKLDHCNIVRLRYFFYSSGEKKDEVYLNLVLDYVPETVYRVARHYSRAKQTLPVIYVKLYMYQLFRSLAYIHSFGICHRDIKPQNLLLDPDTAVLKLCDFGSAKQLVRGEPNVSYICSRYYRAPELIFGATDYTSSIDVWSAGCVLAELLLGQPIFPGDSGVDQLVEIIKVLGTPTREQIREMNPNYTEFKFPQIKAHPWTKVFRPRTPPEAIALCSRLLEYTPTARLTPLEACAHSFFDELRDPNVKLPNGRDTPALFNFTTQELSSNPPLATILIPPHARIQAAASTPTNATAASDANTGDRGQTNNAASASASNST

[27] = biological target: Tyrosine-protein kinase Lck (Homo sapiens, UniProt P06239)
Description: Inhibition of Lck by TR-FRET assay

[28] = biological target: Platelet-derived growth factor receptor alpha (Homo sapiens, UniProt P16234)
Description: Inhibition of PDGFRalpha by TR-FRET assay

[29] = biological target: Calcium/calmodulin-dependent protein kinase type IV (Homo sapiens) (UniProt Q16566); experiment: Inhibition of CAMK4 at 1 uM relative to control
[30] = biological target: Mitogen-activated protein kinase 1 (Homo sapiens) (UniProt P28482); experiment: Inhibition of MAPK2 at 1 uM relative to control
Chain of Mitogen-activated protein kinase 1 (Homo sapiens) (P28482 whole entry): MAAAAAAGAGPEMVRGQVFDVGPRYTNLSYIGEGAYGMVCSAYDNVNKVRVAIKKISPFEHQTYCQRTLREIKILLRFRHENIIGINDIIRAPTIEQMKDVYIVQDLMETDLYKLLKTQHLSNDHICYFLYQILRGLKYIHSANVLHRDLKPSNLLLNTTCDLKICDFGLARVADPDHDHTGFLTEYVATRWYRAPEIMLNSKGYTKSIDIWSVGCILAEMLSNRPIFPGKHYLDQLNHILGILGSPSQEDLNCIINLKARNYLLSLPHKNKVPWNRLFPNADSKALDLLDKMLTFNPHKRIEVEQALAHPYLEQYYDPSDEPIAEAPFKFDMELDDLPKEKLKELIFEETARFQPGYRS

[31] = biological target: Proto-oncogene tyrosine-protein kinase Src (Homo sapiens, UniProt P12931)
Description: Inhibition of Src by TR-FRET assay

[32] = biological target: Serine/threonine-protein kinase Chk1 (Homo sapiens) (UniProt O14757); experiment: Inhibition of CHK1 at 1 uM relative to control
Chain of Serine/threonine-protein kinase Chk1 (Homo sapiens) (O14757 whole entry): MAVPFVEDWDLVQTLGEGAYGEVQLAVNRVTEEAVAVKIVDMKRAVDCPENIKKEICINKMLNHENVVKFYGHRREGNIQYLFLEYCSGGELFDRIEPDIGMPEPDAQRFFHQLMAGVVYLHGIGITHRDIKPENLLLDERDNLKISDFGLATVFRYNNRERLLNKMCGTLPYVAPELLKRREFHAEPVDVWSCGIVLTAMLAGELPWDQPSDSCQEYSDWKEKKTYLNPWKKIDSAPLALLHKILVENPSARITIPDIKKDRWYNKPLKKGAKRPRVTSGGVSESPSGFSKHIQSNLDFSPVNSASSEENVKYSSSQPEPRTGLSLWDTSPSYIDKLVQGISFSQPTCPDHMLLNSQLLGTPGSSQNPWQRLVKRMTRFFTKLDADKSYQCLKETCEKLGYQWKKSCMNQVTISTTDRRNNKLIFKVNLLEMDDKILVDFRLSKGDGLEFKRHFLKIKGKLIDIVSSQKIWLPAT

[33] = biological target: Dual specificity mitogen-activated protein kinase kinase 6 (Homo sapiens) (UniProt P52564); experiment: Inhibition of MKK6 at 1 uM relative to control
[34] = biological target: Dual specificity mitogen-activated protein kinase kinase 7 (Homo sapiens) (UniProt O14733); experiment: Inhibition of MKK7 at 1 uM relative to control
Plasma = experiment: Protein binding in po dosed C57BL/6 mouse plasma by ultracentrifugation; type: ADME, organism-based; conditions: in vivo
[35] = Inhibition of casein kinase 2 at 1 uM relative to control
[36] = Oral bioavailability in Sprague-Dawley rat at 10 mg/kg; type: ADME, organism-based; conditions: in vivo
[37] = biological target: Dual specificity mitogen-activated protein kinase kinase 4 (Homo sapiens) (UniProt P45985); experiment: Inhibition of MKK4 at 1 uM relative to control
[38] = biological target: Mitogen-activated protein kinase 12 (Homo sapiens) (UniProt P53778); experiment: Inhibition of p38-gamma at 1 uM relative to control
[39] = biological target: Vascular endothelial growth factor receptor 2 (Homo sapiens, UniProt P35968)
Description: Inhibition of KDR by TR-FRET assay

[40] = biological target: Mitogen-activated protein kinase 1 (Homo sapiens) (UniProt P28482); experiment: Inhibition of MAPK1 at 1 uM relative to control
[41] = biological target: Tyrosine-protein kinase ZAP-70 (Homo sapiens) (UniProt P43403); experiment: Inhibition of ZAP70 at 1 uM relative to control
[42] = Clearance in Sprague-Dawley rat at 1 mg/kg, iv; type: ADME, organism-based; parameters: dose 1 mg/kg, route intravenous; conditions: in vivo
[43] = Inhibition of PKAalpha at 1 uM relative to control
[44] = biological target: Mitogen-activated protein kinase 14 (Homo sapiens) (UniProt Q16539); experiment: Inhibition of p38alpha at 1 uM relative to control
Chain of Mitogen-activated protein kinase 14 (Homo sapiens) (Q16539 whole entry): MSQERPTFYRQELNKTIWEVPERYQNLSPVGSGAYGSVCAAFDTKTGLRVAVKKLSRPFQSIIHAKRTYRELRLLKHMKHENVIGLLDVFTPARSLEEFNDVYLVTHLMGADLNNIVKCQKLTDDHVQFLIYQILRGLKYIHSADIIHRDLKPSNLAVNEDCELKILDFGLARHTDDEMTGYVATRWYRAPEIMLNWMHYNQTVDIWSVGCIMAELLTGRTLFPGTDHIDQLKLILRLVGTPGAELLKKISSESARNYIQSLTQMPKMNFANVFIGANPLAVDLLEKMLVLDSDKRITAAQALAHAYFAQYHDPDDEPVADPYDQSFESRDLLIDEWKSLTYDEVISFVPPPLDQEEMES

[45] = biological target: Protein kinase C alpha type (Homo sapiens) (UniProt P17252); experiment: Inhibition of PKCalpha at 1 uM relative to control
[46] = biological target: Dual specificity mitogen-activated protein kinase kinase 1 (Homo sapiens) (UniProt Q02750); experiment: Inhibition of MEK1 at 1 uM relative to control
Chain of Dual specificity mitogen-activated protein kinase kinase 1 (Homo sapiens) (Q02750 whole entry): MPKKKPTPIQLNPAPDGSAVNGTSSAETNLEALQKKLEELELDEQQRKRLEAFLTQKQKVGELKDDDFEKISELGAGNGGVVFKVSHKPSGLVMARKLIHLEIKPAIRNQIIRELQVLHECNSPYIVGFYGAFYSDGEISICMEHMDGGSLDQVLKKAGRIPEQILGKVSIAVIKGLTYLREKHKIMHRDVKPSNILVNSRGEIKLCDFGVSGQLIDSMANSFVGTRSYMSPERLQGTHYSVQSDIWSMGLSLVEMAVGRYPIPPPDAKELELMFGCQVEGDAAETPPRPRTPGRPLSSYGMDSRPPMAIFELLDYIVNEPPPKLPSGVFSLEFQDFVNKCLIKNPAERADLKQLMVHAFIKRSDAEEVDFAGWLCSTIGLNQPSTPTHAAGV

[47] = biological target: Mitogen-activated protein kinase 11 (Homo sapiens) (UniProt Q15759); experiment: Inhibition of p38beta at 1 uM relative to control
[48] = Cmax in Sprague-Dawley rat at 10 mg/kg, po; type: ADME, organism-based; parameters: dose 10 mg/kg, route oral; conditions: in vivo

In the case of Cc1ccn(-c2cccc(C(F)(F)F)c2)c(=O)c1-c1ccc2nc(N)ncc2c1, the inhibition [1] is reported as 50%, the Vd [2] is reported as 4.12 L/kg and the inhibition [3] is reported as over 50%. For the same molecule, the inhibition [4] was over 50%, the IC50 [5] was 1400 nM and the inhibition [6] was over 50%. The inhibition [7] was over 50%, the inhibition [8] was over 50% and the inhibition [9] was over 50%. For the same molecule, the inhibition [10] was over 50%, the inhibition [11] was over 50% and the inhibition [12] was over 50%. For the same molecule, the inhibition [13] was over 50%, the inhibition [14] was over 50% and the IC50 [15] was 6100 nM. It also gave an inhibition [16] of over 50%, an inhibition [17] of over 50% and an inhibition [18] of over 50%. The inhibition [19] was 50%, the AUC(0-t) [20] was 1040 ng·h/mL and the inhibition [21] was over 50%. The half-life [22] was 1.83 h, the inhibition [23] was over 50% and the inhibition [24] was over 50%. The inhibition [25] was over 50%, the EC50 (Mus musculus) was 12.6 nM and the ED50 (Mus musculus; po) was 4.7 mg/kg. For the same molecule, the inhibition [26] was over 50%, the IC50 [27] was 1700 nM and the IC50 [28] was 9 nM. It also gave an inhibition [29] of over 50%, an inhibition [30] of over 50% and an IC50 [31] of 860 nM. It also gave an inhibition [32] of over 50%, an inhibition [33] of over 50% and an inhibition [34] of over 50%. The Activity (Plasma) was 87.85%, the inhibition [35] was over 50% and the bioavailability [36] was 25%. It also gave an inhibition [37] of over 50%, an inhibition [38] of over 50% and an IC50 [39] of over 5000 nM. It also gave an inhibition [40] of over 50%, an inhibition [41] of over 50% and a clearance [42] of 41 mL/min/kg. For the same molecule, the inhibition [43] was over 50%, the inhibition [44] was over 50% and the inhibition [45] was over 50%. The inhibition [46] was over 50%, the inhibition [47] was over 50% and the Cmax [48] was 253 ng/mL.
